Laboratory results from US10265298B2, “Method of increasing the bioavailability of silybin” (Macau University of Science and Technology, priority 2017, dated 2019).

Target: T1, BCRP (Homo sapiens, UniProt Q9UNQ0)
T1 sequence (Q9UNQ0 1-655): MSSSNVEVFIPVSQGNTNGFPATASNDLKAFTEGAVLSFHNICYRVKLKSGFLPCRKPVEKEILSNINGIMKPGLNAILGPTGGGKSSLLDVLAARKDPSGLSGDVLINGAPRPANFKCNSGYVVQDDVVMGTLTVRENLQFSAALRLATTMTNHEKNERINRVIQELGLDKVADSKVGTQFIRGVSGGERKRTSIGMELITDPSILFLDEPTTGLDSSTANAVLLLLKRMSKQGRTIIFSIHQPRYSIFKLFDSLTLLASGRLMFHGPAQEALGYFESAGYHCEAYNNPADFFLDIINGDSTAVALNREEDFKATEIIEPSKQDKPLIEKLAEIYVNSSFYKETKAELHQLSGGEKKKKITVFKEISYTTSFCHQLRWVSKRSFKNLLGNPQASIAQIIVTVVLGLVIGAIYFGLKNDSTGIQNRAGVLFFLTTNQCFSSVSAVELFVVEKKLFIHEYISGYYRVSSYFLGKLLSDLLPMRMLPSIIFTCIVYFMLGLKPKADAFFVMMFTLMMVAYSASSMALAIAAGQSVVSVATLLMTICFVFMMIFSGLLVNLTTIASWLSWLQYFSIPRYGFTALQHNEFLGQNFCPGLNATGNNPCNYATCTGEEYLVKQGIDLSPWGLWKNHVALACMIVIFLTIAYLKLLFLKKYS
Assay: Inhibition of pheophorbide A (Ph A) efflux in MDCKII-BCRP cell monolayers
Settings: not given
Description: (§1) Parental Madin-Darby canine kidney II (MDCKII), multi-drug resistance gene 1-Madin-Darby canine kidney II (MDR1-MDCKII), breast cancer resistance protein-Madin-Darby canine kidney II (BCRP-MDCKII), and multi-drug resistance protein 2-Madin-Darby canine kidney II (MRP2-MDCKII) cells were kindly provided by the Netherlands Cancer Institute (Amsterdam, Netherlands) and frozen at −80° C. The MDCKII cells were cultured at 37° C./5% CO2 in Dulbecco's modified Eagle's medium supplemented with 10% fetal bovine serum, 1% nonessential amino acids, and 2% penicillin-streptomycin. The cells were seeded on transwell inserts (Corning Inc.) at a density of 2.0×10^5 cells/cm^2 and grown for 4-5 days to form confluent monolayers.
(§2) Bidirectional transport assays in human colorectal adenocarcinoma 2 (Caco-2) and Madin-Darby canine kidney II (MDCK II) was carried out by dosing substrates in assay buffer to either the apical chamber (A-to-B) or the basolateral chamber (B-to-A); cells were then incubated at 37° C. with shaking at 50 rotations per minute (rpm), and 100 μl samples were collected at 30, 60, 90, 120 and 180 minutes from the basolateral chamber to study the drug transport of AP to BL, or apical chamber to study the drug transport of BL to AP. Cell monolayers were then washed twice with ice-cold assay buffer and lysed with methanol on ice for 10 minutes. For inhibition studies, Caco-2 or MDCK II cell monolayers were pre-incubated with an inhibitor in both apical and basolateral chambers for 30 minutes, and bidirectional transport of 10 μM silybin was conducted in the absence (control) or presence of the inhibitor in both chambers. […] For fluorescence intensity detection, samples collected from AP or BL side were immediately detected in 96 well black plate by Microplate ultraviolet-visible spectroscopy (UV/VIS) spectrophotometer (TECAN infinite M200 PRO, Männedorf, Switzerland). In all cases, each determination was performed in triplicate.
(§3) The apparent permeability coefficients (Papp) were calculated as Papp=dQ/dt×1/(C“0”A) where dQ/dt (mM/sec) is the rate of permeation of the drug across the cells, C0 (millimolar (mM)) is the donor compartment concentration at time zero and A (cm^2) is the area of the cell monolayer. C0 is obtained from analysis of the dosing solution at the start experiment. Efflux Ratio (ER)=Papp (B to A)/Papp (A to B), while Papp (B−A) is the Papp value measured in the B to A direction, and Papp (A−B) is the Papp value measured in the A to B direction. 1.5 Preparation of Rat Sandwich-Cultured Hepatocytes
(§4) (*, P<0.05;**, P<0.01; ***, P<0.001 vs absence of any inhibitor. n=3).
as §4
In the case of pheophorbide A [Ph A], the “mean efflux ratio of pheophorbide A (Ph A)” value is reported as 2.82.

System: not listed separately
Assay: Bidirectional transport across Caco-2 cell monolayers
Settings: human, Caco-2
Description: (§5) Human colorectal adenocarcinoma-2 (Caco-2) cells was obtained from American Type Culture Collection (Manassas, Va.) and frozen at −80° C. For transport study, cells were cultured at 37° C./5% CO2 in Dulbecco's modified Eagle's medium supplemented with 10% fetal bovine serum, 1% nonessential amino acids, and 1% penicillin-streptomycin. […] The culture medium was changed 24 hours after seeding to remove cell debris and dead cells; after which the medium was changed on alternate days. Monolayers were used for transport assays between 21 and 23 days for Caco-2 cells. Prior to transport study, cell monolayers were certified based on internal criteria on transepithelial electrical resistance (TEER) values.
(§6) Prior to transport study, cell monolayers were certified based on our internal criteria on transepithelial electrical resistance (TEER) values, and only monolayers that met the acceptance criteria (transepithelial electrical resistance >500 Ω·cm^2 for Caco-2 cells and >200 Ω·cm^2 for MDCK cells) were selected for transport studies.
as §2, §3
For `O=c1c(-c2ccc(O)cc2)coc2cc(O)cc(O)c12` [genistein], the Papp at 180 min was 13 ×10⁻⁶ cm/s.

System: Caco-2 cell monolayers
Assay: as above
Settings: Ko143 at 0.5 μM (BCRP inhibitor); quinidine at 20 μM (P-gp inhibitor)
Description: as §5, §6, §2, §3
With `COc1ccc2c3c([nH]c2c1)[C@H](CC(C)C)N1C(=O)[C@H](CCC(=O)OC(C)(C)C)NC(=O)[C@@H]1C3` [Ko143, (3S,6S,12aS)-1,2,3,4,6,7,12,12a-octahydro-9-methoxy-6-(2-methylpropyl)-1,4-dioxo-pyrazino[1′,2′:1,6]pyrido[3,4-b]indole-3-propanoic acid 1,1-dimethylethyl ester] the “effect of efflux transporter inhibitor on efflux/absorption of silybin” value was “inhibited the efflux ratio of silybin”.

System: Caco-2 cells
Assay: Glucuronidation of silybin in Caco-2 cells (LC-MS peak area of silybin glucuronides)
Format: in vitro ADME, human
Settings: Homo sapiens, Caco-2; silybin 10 μM, test compound 20 μM co-incubation; read-out: inhibition on the glucuronide conjugation of silybin
Description: The analysis of silybin and total concentrations of glucuronides and sulfates was performed on an Agilent HP 1100 LC-MS system (Agilent, CA). A Waters ACQUITY UPLC® BEH C18 Column (1.7 μm, 2.1×50 mm, Waters Corp., Ireland) was used for detection with a C18 Security Guard cartridge (4×2.0 mm i.d., Phenomenex, Torrance, Calif.). Silybin A and silybin B were well separated using optimized gradient elution with methanol (mobile phase B) and 0.1% formic acid in water (mobile phase A) as mobile phase at a flow rate of 0.4 ml/min with a run time of 10 minutes. The gradient employed was as follows (time: mobile phase B percentage): 0 min: 25%, 6 minutes: 40%, 6.5 minutes: 25%.
MS parameters including: capillary voltage, −4000 V; nebulizer pressure, 40 pounds per square inch (psi); drying gas, 9 liters per minute (L/min); drying gas temperature, 325° C.; fragment voltage, 35 volts; dwell time, 200 milliseconds (ms); scan mode, selective ion monitoring (SIM) with [M-H]− for silybin (mass-to-charge ratio (m/z) 481), mono-glucuronide (m/z 657), and NG (m/z 271), respectively. LC-MS data were obtained by Agilent ChemStation Software.
Silybin is primarily metabolized to glucuronide (about 55%) and sulfate (about 28%) conjugates in human plasma after oral administration. To examine whether the co-incubation of flavonoids could affect the conjugation of silybin, the peak area of silybin glucuronides was measured by LC-MS (FIG. 6). Identification of glucuronides in the samples was based on their MS in-source fragmentations (m/z 657).
For `O=C(O)[C@H]1O[C@@H](Oc2cc3oc(-c4ccccc4)cc(=O)c3c(O)c2O)[C@H](O)[C@@H](O)[C@@H]1O` [baicalin], the inhibition at 20 µM was > 50%.
For `O=c1cc(-c2ccccc2)oc2cc(O)cc(O)c12` [chrysin], the inhibition at 20 µM was > 50%.
With `COc1cc(/C=C/C(=O)CC(=O)/C=C/c2ccc(O)c(OC)c2)ccc1O` [curcumin] the inhibition at 20 µM was > 50%.
For `O=C1c2c(O)cc(O)cc2O[C@H](c2cc(O)c(O)c(O)c2)[C@H]1O` [dihydromyricetin], the inhibition at 20 µM was > 50%.
In the case of `O=c1c(O)c(-c2ccc(O)c(O)c2)oc2cc(O)ccc12` [fisetin], the inhibition at 20 µM is reported as > 50%.
In the case of `COc1cc(-c2oc3cc(O)cc(O)c3c(=O)c2O)ccc1O` [isorhamnetin], the inhibition at 20 µM is reported as > 50%.
With `COc1ccc(-c2oc3cc(O)cc(O)c3c(=O)c2O)cc1` [kaempferide] the inhibition at 20 µM was > 50%.
For `O=c1c(O)c(-c2ccc(O)cc2)oc2cc(O)cc(O)c12` [kaempferol], the inhibition at 20 µM was > 50%.
In the case of `O=c1c(O)c(-c2ccc(O)c(O)c2)oc2cc(O)cc(O)c12` [quercetin], the inhibition at 20 µM is reported as > 50%.

Same assay, conditions: silybin 10 μM, test compound 20 μM co-incubation
With `O=C(O[C@@H]1Cc2c(O)cc(O)cc2O[C@@H]1c1ccc(O)c(O)c1)c1cc(O)c(O)c(O)c1` [(−)-ECG] the “effect on glucuronide metabolites / glucuronide conjugation of silybin” value was “did not significantly inhibit the conjugation”.
In the case of `CN(C)C(=O)CCSC(SCCC(=O)[O-])c1cccc(/C=C/c2ccc3ccc(Cl)cc3n2)c1.[Na+]` (centres unmarked) [MK571, (E)-3-[[[3-[2-(7-chloro-2-quinolinyl)ethenyl]phenyl][[3-(dimethylamino)-3-oxopropyl]thio]methyl]thio]-propanoic acid, sodium salt], the “effect on glucuronide metabolites / glucuronide conjugation of silybin” value is reported as “almost undetected”.
For `COc1ccc2c(c[n+](C)c3c4cc5c(cc4ccc23)OCO5)c1OC` [chelerythrine], the “effect on glucuronide metabolites / glucuronide conjugation of silybin” value was “did not significantly inhibit the conjugation”.
With `COc1ccc(-c2cc(=O)c3c(O)cc(O)cc3o2)cc1O` [diosmetin] the “effect on glucuronide metabolites / glucuronide conjugation of silybin” value was “almost undetected”.
For `O=c1c(O)c(-c2ccccc2)oc2cc(O)cc(O)c12` [galangin], the “effect on glucuronide metabolites / glucuronide conjugation of silybin” value was “almost undetected”.
With `COc1ccc([C@@H]2CC(=O)c3c(O)cc(O[C@@H]4O[C@H](CO[C@@H]5O[C@@H](C)[C@H](O)[C@@H](O)[C@H]5O)[C@@H](O)[C@H](O)[C@H]4O)cc3O2)cc1O` [hesperidin] the “effect on glucuronide metabolites / glucuronide conjugation of silybin” value was “did not significantly inhibit the conjugation”.
For `O=c1cc(-c2ccc(O)c(O)c2)oc2cc(O)cc(O)c12` [luteolin], the “effect on glucuronide metabolites / glucuronide conjugation of silybin” value was “almost undetected”.
In the case of `O=c1c(O)c(-c2ccc(O)cc2O)oc2cc(O)cc(O)c12` [morin], the “effect on glucuronide metabolites / glucuronide conjugation of silybin” value is reported as “almost undetected”.
For `Oc1ccc(C=Cc2cc(O)cc(O)c2)cc1` [resveratrol], the “effect on glucuronide metabolites / glucuronide conjugation of silybin” value was “almost undetected”.

Target: MRP2 (Homo sapiens, UniProt Q92887)
Sequence (Q92887 whole entry): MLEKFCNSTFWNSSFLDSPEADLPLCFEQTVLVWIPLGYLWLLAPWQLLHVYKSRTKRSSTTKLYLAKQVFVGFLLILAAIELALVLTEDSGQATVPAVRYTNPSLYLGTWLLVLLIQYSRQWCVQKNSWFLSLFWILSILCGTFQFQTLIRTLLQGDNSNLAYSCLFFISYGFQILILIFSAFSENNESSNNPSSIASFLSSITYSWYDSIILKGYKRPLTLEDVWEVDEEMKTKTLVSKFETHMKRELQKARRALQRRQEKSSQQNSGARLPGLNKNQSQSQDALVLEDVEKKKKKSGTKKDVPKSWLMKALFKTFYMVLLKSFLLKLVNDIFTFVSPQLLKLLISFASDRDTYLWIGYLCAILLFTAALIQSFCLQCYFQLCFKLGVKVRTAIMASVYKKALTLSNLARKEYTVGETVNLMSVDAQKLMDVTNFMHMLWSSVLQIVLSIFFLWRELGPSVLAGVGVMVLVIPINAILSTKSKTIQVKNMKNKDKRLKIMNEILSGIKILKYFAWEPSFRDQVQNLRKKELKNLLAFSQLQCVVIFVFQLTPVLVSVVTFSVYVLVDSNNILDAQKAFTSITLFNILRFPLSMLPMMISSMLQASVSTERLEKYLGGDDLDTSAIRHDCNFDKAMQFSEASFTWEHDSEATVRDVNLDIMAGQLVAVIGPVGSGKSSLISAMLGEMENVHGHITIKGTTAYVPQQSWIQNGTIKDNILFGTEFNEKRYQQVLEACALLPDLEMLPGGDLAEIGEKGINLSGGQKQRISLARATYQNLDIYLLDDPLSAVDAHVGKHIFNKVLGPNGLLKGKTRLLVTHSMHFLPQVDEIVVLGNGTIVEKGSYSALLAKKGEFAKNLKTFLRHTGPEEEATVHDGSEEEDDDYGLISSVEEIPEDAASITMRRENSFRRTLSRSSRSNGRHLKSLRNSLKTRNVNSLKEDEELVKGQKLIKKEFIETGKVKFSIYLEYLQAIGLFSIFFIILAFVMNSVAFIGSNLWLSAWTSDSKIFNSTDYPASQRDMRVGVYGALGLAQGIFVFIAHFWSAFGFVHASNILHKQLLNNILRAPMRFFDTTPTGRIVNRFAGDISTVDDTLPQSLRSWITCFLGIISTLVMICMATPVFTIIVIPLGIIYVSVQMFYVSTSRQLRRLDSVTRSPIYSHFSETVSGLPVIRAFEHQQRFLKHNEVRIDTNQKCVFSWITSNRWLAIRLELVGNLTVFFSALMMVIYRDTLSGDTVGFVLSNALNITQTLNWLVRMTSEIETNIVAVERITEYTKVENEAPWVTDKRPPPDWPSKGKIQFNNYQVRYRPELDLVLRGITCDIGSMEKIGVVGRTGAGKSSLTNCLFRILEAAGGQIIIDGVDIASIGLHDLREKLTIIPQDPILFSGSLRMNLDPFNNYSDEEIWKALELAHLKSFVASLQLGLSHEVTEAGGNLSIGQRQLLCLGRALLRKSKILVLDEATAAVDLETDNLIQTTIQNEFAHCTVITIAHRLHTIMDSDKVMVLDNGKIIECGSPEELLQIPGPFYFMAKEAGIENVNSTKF
Assay: cell-based
Settings: dog, 180 min
Description: as §1, §2, §3, §4, §4
For `CN(C)C(=O)CCSC(SCCC(=O)[O-])c1cccc(/C=C/c2ccc3ccc(Cl)cc3n2)c1.[Na+]` (centres unmarked) [MK571, (E)-3-[[[3-[2-(7-chloro-2-quinolinyl)ethenyl]phenyl][[3-(dimethylamino)-3-oxopropyl]thio]methyl]thio]-propanoic acid, sodium salt], the “efflux ratio of CDCFDA in the presence of inhibitor” value was 1.11.

System: not listed separately
Assay: in vitro
Format: in vitro ADME, rat
Settings: male, Sprague Dawley, rat
Description: Sandwich-cultured rat hepatocytes (SCHs) were established according to previously described methods with minor modifications. Primary rat hepatocytes were isolated from male Sprague Dawley® (SD) rats (220-270 g) using a collagenase perfusion as described previously and plated at a density of 7.4×10^5 cells/2 ml/well onto six-well BioCoat plates. Approximately 24 hours later, hepatocytes were overlaid with 2 ml of 0.25 mg/ml BD Matrigel basement membrane matrix in Dulbecco's modified Eagle medium (DMEM) containing 1% volume by volume percentage (v/v) insulin/transferrin/selenium culture supplement, […] dexamethasone, 2 mM L-glutamine, 1% (v/v) minimum essential medium nonessential amino acids, 1% penicillin-streptomycin. Hepatocytes were cultured for 4 days to allow extensive formation of canalicular networks between cells before experimentation and the medium was changed daily.
Sandwich-cultured hepatocytes (SCHs) were pre-incubated in 2 milliliters (ml) of warm Hank's Balanced Salt Solution (HBSS) with or without Ca^2+ at 37° C. for 15 minutes; the tight junctions of the bile canaliculi open temporally after exposure to HBSS without Ca^2+. Subsequently, cells were incubated at 37° C. for 20 minutes with 1.5 ml of standard HBSS containing silybin (10 μM), or MK 571 (50 μM) as a positive control, or baicalein (25, 15.8, 5, 1.58, 0.5, 0.16 μM), or tangeretin (25, 15.8, 5, 1.58, 0.5 μM). After 20 min, cells were washed three times with ice-cold standard HBSS. The cell samples were lysed by sonication in 1 ml of water for 5 seconds with the ultrasonic cell disruption system (SONICS & […], INC., Newtown, Conn., USA). Conjugated silybin and unconjugated (free) silybin were quantified by high-performance liquid chromatography-tandem mass spectrometry (HPLC-MS/MS). Transport function was normalized to the protein content of the hepatocytes which was evaluated by bicinchoninic acid (BCA) protein assay (Pierce Chemical, Rockford, Ill.). The biliary excretion index (BEI; %) and in vitro biliary clearance (Clbiliary; ml/min/kg) were calculated by using B-CLEAR technology (Qualyst, Inc., Research Triangle Park, N.C.) based on the following equations: […]
`CN(C)C(=O)CCSC(SCCC(=O)[O-])c1cccc(/C=C/c2ccc3ccc(Cl)cc3n2)c1.[Na+]` (centres unmarked) [MK571, (E)-3-[[[3-[2-(7-chloro-2-quinolinyl)ethenyl]phenyl][[3-(dimethylamino)-3-oxopropyl]thio]methyl]thio]-propanoic acid, sodium salt] gave an inhibition at 20 min, 50 μM of 100%.
